Legend:
aldose reductase = target: T1, aldose reductase (Rattus norvegicus, UniProt P07943); assay: comparative aldose reductase activity determination (MDS Pharma Services); assay type: biochemical; conditions: carried out by MDS Pharma Services
T1 construct: MDS Pharma Services - Taiwan Ltd (contract laboratory that ran the assay)
Protocol: A comparative aldose reductase activity determination was carried out by the company MDS Pharma Services—Taiwan Ltd; the results of that study is set forth in Table 1 below.

human VR1 = target: T2, human VR1 (Homo sapiens, UniProt Q8NER1); assay: hVR1 FLIPR screening assay, IC50 determination (capsaicin); assay type: cell-based; conditions: CHO cells stably expressing hVR1; agonist capsaicin
T2 construct: expressed in transfected cells; host or cells: CHO cells
T2 sequence (Q8NER1 whole entry): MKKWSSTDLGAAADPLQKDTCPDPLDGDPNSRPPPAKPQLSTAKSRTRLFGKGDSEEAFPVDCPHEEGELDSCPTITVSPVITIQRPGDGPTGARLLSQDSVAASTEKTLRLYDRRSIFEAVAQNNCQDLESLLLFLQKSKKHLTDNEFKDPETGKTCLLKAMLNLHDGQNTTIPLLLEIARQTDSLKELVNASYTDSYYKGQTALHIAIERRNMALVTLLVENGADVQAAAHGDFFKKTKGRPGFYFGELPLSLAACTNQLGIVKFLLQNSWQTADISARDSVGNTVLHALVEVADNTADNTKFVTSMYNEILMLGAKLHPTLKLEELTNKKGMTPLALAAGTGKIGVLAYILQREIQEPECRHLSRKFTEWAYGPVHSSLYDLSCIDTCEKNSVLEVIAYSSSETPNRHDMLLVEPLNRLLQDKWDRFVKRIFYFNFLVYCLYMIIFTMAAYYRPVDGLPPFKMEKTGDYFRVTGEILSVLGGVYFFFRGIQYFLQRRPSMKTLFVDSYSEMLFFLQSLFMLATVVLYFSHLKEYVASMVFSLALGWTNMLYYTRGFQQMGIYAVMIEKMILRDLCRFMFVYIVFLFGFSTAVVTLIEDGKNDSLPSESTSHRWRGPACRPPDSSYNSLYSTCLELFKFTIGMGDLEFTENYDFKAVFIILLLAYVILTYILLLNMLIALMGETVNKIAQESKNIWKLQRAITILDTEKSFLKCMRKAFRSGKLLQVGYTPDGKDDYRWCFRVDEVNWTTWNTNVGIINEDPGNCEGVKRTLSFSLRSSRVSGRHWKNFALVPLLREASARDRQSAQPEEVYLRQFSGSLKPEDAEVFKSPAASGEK
Protocol: hVR1FLIPR (Fluorometric Image Plate Reader) Screening Assay
Transfected CHO cells, stably expressing hVR1 (15,000 cells/well) are seeded in 50 μL media in a black clear bottom 384 plate (Greiner) and grown in a humidified incubator (37° C., 2% CO2), 24-30 hours prior to experiment.
Subsequently, the media is removed from the cell plate by inversion and 2 μM Fluo-4 is added using a multidrop (Labsystems). Following the 40 min dye incubation in the dark at 37° C. and 2% CO2, the extracellular dye present is washed away using an EMBLA (Scatron), leaving the cells in 40 μL of assay buffer (1×HBSS, 10 mM D-Glucose, 1 mM CaCl2, 10 mM HEPES, 10×7.5% NaHCO3 and 2.5 mM Probenecid).
FLIPR Assay—IC50 Determination Protocol
For IC50 determinations the fluorescence is read using FLIPR filter 1 (em […]). A cellular baseline recording is taken for 30 seconds, followed by a 20 μL addition of 10, titrated half-log concentrations of the test compound, yielding cellular concentration ranging from 3 μM to 0.1 nM. Data is collected every 2 seconds for a further 5 min prior to the addition of a VR1 agonist solution: either 50 nM solution of capsaicin or MES (2-[N-morpholino] ethanesulfonic acid) buffer (pH 5.2), by the FLIPR pipettor. The FLIPR continues to collect data for a further 4 min. Compounds having antagonistic properties against the hVR1 will inhibit the increase in intracellular calcium in response to the capsaicin addition. This consequently leading to a reduction in fluorescence signal and providing a reduced fluorescence reading, compared with no compound, buffer controls. Data is exported by the FLIPR program as a sum of fluorescence calculated under the curve upon the addition of capsaicin. Maximum inhibition, Hill slope and IC50 data for each compound are generated.

[1] = system: carrageenan-induced heat hyperalgesia; assay: Carrageenan model, heat plantar test (paw withdrawal latency); assay type: in vivo; conditions: rat, oral
[2] = system: FCA-induced heat hyperalgesia; assay: Freund's Complete Adjuvant (FCA) model, heat plantar test (paw withdrawal latency); assay type: in vivo; conditions: rat, oral
[3] = tested at Tmax, reversal of heat hyperalgesia

Row | Compound | IC50 (aldose reductase) [nM] | IC50 (human VR1) [nM] | further results
1 | O=C1NC(=O)[C@@]2(N1)C(=O)N(C/C=C/c1ccc(Cl)c(C(F)(F)F)c1)c1ccccc12 (single isomer, unassigned) [Enantiomer 2B] | 3300 | 241 | 
2 | O=C1NC(=O)[C@@]2(N1)C(=O)N(C/C=C/c1ccc(Cl)c(Cl)c1)c1ccccc12 (single isomer, unassigned) [Enantiomer 1B] | 758 | 43 | Extrapolated Emax ([1]; non-linear regression): 88%; EC80 ([1]; reversal of heat hyperalgesia): 10700 nM; Emax observed ([1]; reversal of heat hyperalgesia): 76%; EC50 [1, 3]: 4800 nM; ED50 [1, 3]: 10.6 µmol/kg; Extrapolated Emax ([2]; non-linear regression): >100%; EC80 ([2]; reversal of heat hyperalgesia): 100000 nM; Emax observed ([2]; reversal of heat hyperalgesia): 100%; EC50 [2, 3]: 24000 nM; ED50 [2, 3]: 52.8 µmol/kg
3 | O=C1NC(=O)[C@@]2(N1)C(=O)N(CC#Cc1ccc(Cl)c(Cl)c1)c1ccccc12 (single isomer, unassigned) [Enantiomer 3B] | 983 | 881 | 

Stronger by IC50 (aldose reductase), values ahead:

Row | IC50 (aldose reductase) [nM] | IC50 (human VR1) [nM] | Compound | further results
4 | 33 | 3850 | O=C1NC(=O)[C@]2(N1)C(=O)N(C/C=C/c1ccc(Cl)c(C(F)(F)F)c1)c1ccccc12 (single isomer, unassigned) [Enantiomer 2A] | 
5 | 25 | 10000 | O=C1NC(=O)[C@]2(N1)C(=O)N(C/C=C/c1ccc(Cl)c(Cl)c1)c1ccccc12 (single isomer, unassigned) [Enantiomer 1A] | 
6 | 72.3 | 15500 | O=C1NC(=O)[C@]2(N1)C(=O)N(CC#Cc1ccc(Cl)c(Cl)c1)c1ccccc12 (single isomer, unassigned) [Enantiomer 3A] | 

Reference: patent publication US7868181B2, “Compounds” (AstraZeneca AB, priority 2007, dated 2011)
